In assay [1] the test system is human umbilical-vein endothelial cells (HUVEC). The experiment in a line: Tube Formation Assay (TFA) Test, HUVEC in collagen gel. It is filed as cell-based. The settings on record: Tables 75-83, 0.32 mM sample solution, method as for Compounds 1 through 60; for inhibition at 320 µM (stock): Homo sapiens, HUVEC, read-out: TFA Inhibition rate (%). The method in brief: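 Inhibition rate (%) of tube formation is computed from tube lengths against control (+) and control (-), measured after 20 h at 37 °C in M-199 with 20% FCS, 30 ng/ml b-FGF and 0.1 μM PMA. Samples were applied to HUVEC on collagen and covered by a second collagen layer (double-layer gel).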

The subject of a further assay is HUFEC. The experiment in a line: Cell Migration Assay (CMA) Test, inhibitory rate with control (-) correction. It is filed as cell-based, human. As to conditions: 125 μl of 0.32 mM sample solution in 4.0 ml medium, 80% or more = remarkable; for inhibition at 320 µM (stock): Homo sapiens, 24 h. The procedure, abridged: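 Confluent HUFEC monolayers were scratch-wounded, then cultured 24 h at 37 °C, 5% CO2 in M199 (2+) medium with compound added as 125 μl of a 0.32 mM solution (3.2% DMSO) per 4 ml. Giemsa-stained cells migrating into 1 mm×1 mm blocks counted; inhibition % calculated relative to control (+) and control (−) wells.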

The term inhibition denotes the percentage by which the read-out fell short of the control. With `COC(=O)C1=CO[C@@H](OC(=O)Nc2cccc(C(C)=O)c2)[C@H]2[C@@H]1CC[C@@H]2C` [I-273], the results for the inhibition at 320 µM (stock) (in assay [1]; in the assay with HUFEC) were 17.5% and 3.8%, respectively.

Regarding `COC(=O)C1=CO[C@@H](OC(=O)Nc2ccc(OC(F)(F)F)cc2)[C@H]2[C@@H]1CC[C@@H]2C` [I-266], the values for the inhibition at 320 µM (stock) (in assay [1]; with HUFEC) were 4.9% and 9.4%, respectively.

For `C[C@]12O[C@H]1C[C@@H]1C(C(=O)O)=CO[C@@H](OC(=O)NCCCl)[C@@H]12` [I-67], the “TFA (inhibition rate, %)” value in assay [1] turned out to be 19.7%. Further, the “CMA Inhibition rate (%)” value in the assay on HUFEC (24 hours) is 29.5%.

Regarding `CCOC(=O)c1ccc(NC(=O)O[C@@H]2OC=C(C(=O)OC)[C@H]3CC[C@H](C)[C@@H]23)cc1` [I-268], the inhibition at 320 µM (stock) in assay [1] is 7.6%; in the assay with HUFEC, 8.4%.

`CCCCCCC1CC[C@@H]2C(C(=O)OC)=CO[C@@H](OC(=O)NC)[C@H]12` (stereo partly shown) [I-300]: the inhibition at 320 µM (stock) was 14.6% in assay [1] and 8% in the assay with HUFEC.

With `COC(=O)C1=CO[C@@H](OC(=O)N2CCN(c3cccc(C(F)(F)F)c3)CC2)[C@@H]2C(C)=CC[C@H]12` [I-130], the figures for the inhibition at 320 µM (stock) (in assay [1]; in the assay on HUFEC) were 5.5% and 7.5%, respectively.

In the case of `COC(=O)C1=CO[C@@H](OC(=O)N2CCOCC2)[C@@H]2C(C)=CC[C@H]12` [I-85], the inhibition at 320 µM (stock) in assay [1] stood at 15.6%; in the assay with HUFEC, 31%.

As for `CCCN(C)C(=O)O[C@@H]1OC=C(C(=O)OC)[C@H]2CC[C@H](C)[C@@H]12` [I-193], the inhibition at 320 µM (stock) is 6.7% in assay [1] and 5.3% in the assay on HUFEC.

Regarding `CCN1CCN(C(=O)O[C@@H]2OC=C(C(=O)OC)[C@H]3CC[C@H](C)[C@@H]23)CC1` [I-200], the figures for the inhibition at 320 µM (stock) (in assay [1]; with HUFEC) were 5.6% and 25%, respectively.

Consider `COC(=O)C1=CO[C@@H](OC(=O)Nc2ccc(C)cc2)[C@@H]2C(C)=CC[C@H]12` [I-169], for which the inhibition at 320 µM (stock) in assay [1] was 13.7%; with HUFEC, 12.6%.

As to `CNC(=O)O[C@@H]1OC=C(C(=O)OC)[C@H]2CC[C@H](C)[C@@H]12` [I-254], the inhibition at 320 µM (stock) in assay [1] stood at 4.6%; in the assay with HUFEC, 4.7%.

`COC(=O)C1=CO[C@@H](OC(=O)NCc2ccccn2)[C@@H]2C(C)=CC[C@H]12` [I-75]: the results for the inhibition at 320 µM (stock) (in assay [1]; with HUFEC) were 4.3% and 11.7%, respectively.

In the case of `COC(=O)C1=CO[C@@H](OC(=O)NCCN(C)C)[C@@H]2C(C)=CC[C@H]12` [I-117], the inhibition at 320 µM (stock) in assay [1] turned out to be 26.8%; in the assay with HUFEC it was 28.1%.

As for `C=CCNC(=O)O[C@@H]1OC=C(C(=O)OC)[C@H]2CC[C@H](C)[C@@H]12` [I-228], the inhibition at 320 µM (stock) in assay [1] is 2.7%; with HUFEC, 7.2%.

In the case of `COC(=O)C1=CO[C@@H](OC(=O)Nc2ccc([N+](=O)[O-])cc2)[C@@H]2C(C)=CC[C@H]12` [I-168], the inhibition at 320 µM (stock) in assay [1] was 4.2%; with HUFEC, 17.2%.

For `COC(=O)C1=CO[C@@H](OC(=S)N(C)C)[C@H]2[C@@H]1C[C@@H]1O[C@]21C` [I-284], the values for the inhibition at 320 µM (stock) (in assay [1]; with HUFEC) were 23.1% and 32.5%, respectively.

With `COC(=O)C1=COC[C@@H]2C(COC(=O)NCCCl)CC[C@H]12` (stereo partly shown) [I-297], the values for the inhibition at 320 µM (stock) (in assay [1]; in the assay on HUFEC) were 11.2% and 15.2%, respectively.

Regarding `COC(=O)C1=CO[C@@H](OC(=O)N2CCC2)[C@H]2[C@@H]1CC[C@@H]2C` [I-250], the inhibition at 320 µM (stock) was found to be 4.1% in assay [1] and 8% in the assay on HUFEC.

Turning to `COC(=O)C1=CO[C@@H](OC(=O)N2CCCCC2)[C@H]2[C@@H]1CC[C@@H]2C` [I-216], the figures for the inhibition at 320 µM (stock) (in assay [1]; with HUFEC) were 3.7% and 9.4%, respectively.

On to `COC(=O)C1=CO[C@@H](OC(=O)NCCc2cccc(F)c2)[C@@H]2C(C)=CC[C@H]12` [I-99], for which the inhibition at 320 µM (stock) is 8.6% in assay [1] and 9.9% in the assay with HUFEC.

Regarding `COC(=O)C1=CO[C@@H](OC(=O)NCCCCCO)[C@H]2[C@@H]1CC[C@@H]2C` [I-209], the inhibition at 320 µM (stock) was 4.9% in assay [1] and 8.9% in the assay on HUFEC.

For `CNC(=O)O[C@@H]1OC=C(C(=O)O)[C@H]2CC=C(C)[C@@H]12` [I-307], the “TFA (inhibition rate, %)” value in assay [1] was determined as 50.2%. The molecule further returned an inhibition at 320 µM (stock) in the assay with HUFEC of 52.5%.

With `COC(=O)C1=COC[C@@H]2C(C(=O)N3CCN(CCO)CC3)=CC[C@H]12` [I-293], the results for the inhibition at 320 µM (stock) (in assay [1]; in the assay on HUFEC) were 11.2% and 69.3%, respectively.

In the case of `C=CCN(CC=C)C(=O)O[C@@H]1OC=C(C(=O)OC)[C@H]2CC=C(C)[C@@H]12` [I-125], the inhibition at 320 µM (stock) stood at 2.6% in assay [1] and 17.2% in the assay on HUFEC.

Turning to `COC(=O)C1=CO[C@@H](OC(=O)NCC2CC2)[C@@H]2C(C)=CC[C@H]12` [I-139], the inhibition at 320 µM (stock) in assay [1] was 25.6%; with HUFEC, 9.7%.

`CCN(CCO)C(=O)O[C@@H]1OC=C(C(=O)OC)[C@H]2CC=C(C)[C@@H]12` [I-97]: the inhibition at 320 µM (stock) in assay [1] is 29.1%; with HUFEC, 7.7%.

For `COC(=O)C1=CO[C@@H](OC(=O)NCCc2ccc(OC)cc2)[C@@H]2C(C)=CC[C@H]12` [I-98], the inhibition at 320 µM (stock) in assay [1] was determined as 3.8%; in the assay with HUFEC it was 2.7%.

Take `COC(=O)C1=CO[C@@H](OC(=O)NCCc2ccccc2)[C@H]2[C@@H]1CC[C@@H]2C` [I-224]: the inhibition at 320 µM (stock) in assay [1] is 10.5%; in the assay with HUFEC it was 15.6%.

As for `CNC(=O)O[C@@H]1OC=C(C)[C@H]2CC[C@@H](C)[C@@H]12` [I-283], the figures for the inhibition at 320 µM (stock) (in assay [1]; with HUFEC) were 11% and 9.1%, respectively.

With `COC(=O)C1=CO[C@@H](OC(=O)N2CCCCC2)[C@@H]2C(C)=CC[C@H]12` [I-111], the inhibition at 320 µM (stock) in assay [1] turned out to be 2.9%; in the assay with HUFEC, 9.4%.

For the molecule `CNC(=O)O[C@@H]1OC=C(C(=O)NCCS)[C@H]2C[C@@H]3O[C@]3(C)[C@@H]12` [I-64], the figures for the inhibition at 320 µM (stock) (in assay [1]; with HUFEC) were 5.2% and 9.4%, respectively.

Consider `COC(=O)C1=CO[C@@H](OC(=O)NC2CCCCCC2)[C@@H]2C(C)=CC[C@H]12` [I-103], for which the inhibition at 320 µM (stock) in assay [1] came to 8.3%; in the assay with HUFEC it was 5.1%.

With `COC(=O)C1=CO[C@@H](OC(=O)NCCc2ccccc2F)[C@H]2[C@@H]1CC[C@@H]2C` [I-185], the figures for the inhibition at 320 µM (stock) (in assay [1]; with HUFEC) were 4.9% and 15.6%, respectively.

Take `COC(=O)C1=CO[C@@H](OC(=O)NCCO)[C@H]2[C@@H]1CC[C@@H]2C` [I-187]: the inhibition at 320 µM (stock) in assay [1] worked out at 11.7%; with HUFEC, 31.3%.

Consider `COC(=O)C1=CO[C@@H](OC(=O)NCC(OC)OC)[C@H]2[C@@H]1CC[C@@H]2C` [I-201], for which the inhibition at 320 µM (stock) was 18.5% in assay [1] and 8.5% in the assay on HUFEC.

With `COC(=O)C1=CO[C@@H](OC(=O)NCCCCl)[C@H]2[C@@H]1CC[C@@H]2C` [I-244], the inhibition at 320 µM (stock) in assay [1] was found to be 5.2%; in the assay on HUFEC it was 19.5%.

`CNC(=O)OCC1=CC[C@@H]2C(C(=O)OC)=CO[C@@H](OC(=O)NC)[C@H]12` [I-287]: the inhibition at 320 µM (stock) in assay [1] is 30.1%; in the assay on HUFEC, 35.2%.

In the case of `COC(=O)C1=CO[C@@H](OC(=O)Nc2ccc(F)cc2)[C@@H]2C(C)=CC[C@H]12` [I-156], the results for the inhibition at 320 µM (stock) (in assay [1]; with HUFEC) were 10.9% and 5.8%, respectively.

These data come from patent publication US6225478A, “Iridoid derivatives and neovascularization inhibitors containing the same as active ingredient” (Tsumura & Co., priority 1999, dated 2001).
